Results from ChEMBL document CHEMBL1137308 (J Med Chem, 2006).
≈ marks a conversion by molar mass, not a printed value. Calls of active or inactive are those of the source. The rule behind the calls is not given here.

How the values were obtained:
Staphylococcus aureus [1] = test: Antibacterial activity against Staphylococcus aureus SA2554; assay type: functional
Staphylococcus aureus [2] = test: Antibacterial activity against Staphylococcus aureus UC-76 SA-1; assay type: functional
Streptococcus pneumoniae [3] = test: Antibacterial activity against quinolone-resistant Streptococcus pneumonia SP3763; assay type: functional
DNA gyrase = DNA gyrase (Escherichia coli, UniProt P0AES4+P0AES6); test: Inhibition of Escherichia coli gyrase; assay type: functional
Escherichia coli [4] = test: Antibacterial activity against Escherichia coli EC2549; assay type: functional
Providencia rettgeri = test: Antibacterial activity against Providencia rettgeri PR9; assay type: functional
Staphylococcus aureus [5] = test: Antibacterial activity against Staphylococcus aureus SA2558; assay type: functional
Enterococcus faecalis [6] = test: Antibacterial activity against Enterococcus faecalis MGH2 EF1-1; assay type: functional
Escherichia coli [7] = test: Antibacterial activity against Escherichia coli EC2026; assay type: functional
Enterococcus faecalis [8] = test: Antibacterial activity against Enterococcus faecalis […]; assay type: functional
Moraxella catarrhalis = test: Antibacterial activity against Moraxella catarrhalis BC-3531; assay type: functional
Streptococcus pyogenes [9] = test: Antibacterial activity against Streptococcus pyogenes […]; assay type: functional
Enterococcus faecalis [10] = test: Activity against sc dosed mouse infected with Enterococcus faecalis; assay type: functional; conditions: read-out: PD50
Staphylococcus aureus [11] = test: Antibacterial activity against Staphylococcus aureus SA1417; assay type: functional
Streptococcus pneumoniae [12] = test: Antibacterial activity against Streptococcus pneumonia SVI SP3; assay type: functional
Haemophilus influenzae = test: Antibacterial activity against Haemophilus influenzae HI3542; assay type: functional
Streptococcus pyogenes [13] = test: Activity against po dosed mouse infected with Streptococcus pyogenes; assay type: functional; conditions: read-out: PD50
Klebsiella pneumoniae [14] = test: Antibacterial activity against Klebsiella pneumonia ESBL KP3729; assay type: functional
Streptococcus pyogenes [15] = test: Antibacterial activity against Streptococcus pyogenes C203 SP1-1; assay type: functional
Streptococcus pyogenes [16] = test: Activity against sc dosed mouse infected with Streptococcus pyogenes; assay type: functional; conditions: read-out: PD50
Escherichia coli [17] = test: Antibacterial activity against Escherichia coli EC1-10; assay type: functional
Staphylococcus aureus [18] = test: Antibacterial activity against Staphylococcus aureus SA2552; assay type: functional
Enterococcus faecalis [19] = test: Antibacterial activity against Enterococcus faecalis EF1-3524; assay type: functional
Enterococcus faecium = test: Antibacterial activity against vancomycin-resistant Enterococcus faecium EF4-3489; assay type: functional
Staphylococcus aureus [20] = test: Antibacterial activity against methicillin-resistant Staphylococcus aureus SA1417; assay type: functional
Klebsiella pneumoniae [21] = test: Antibacterial activity against Klebsiella pneumonia KP2; assay type: functional
Staphylococcus aureus [22] = test: Antibacterial activity against ciprofolxacin-resistant Staphylococcus aureus SA2017; assay type: functional
Pseudomonas aeruginosa = test: Antibacterial activity against Pseudomonas aeruginosa PA7; assay type: functional
Enterococcus faecalis [23] = test: Activity against po dosed mouse infected with Enterococcus faecalis; assay type: functional; conditions: read-out: PD50
[24] = target: T1, DNA gyrase (Escherichia coli) (UniProt P0AES6+P0AES4); test: Ability to inhibit DNA supercoiling activity of Escherichia coli gyrase; assay type: functional
[25] = target: T1, DNA gyrase (Escherichia coli); test: Displacement of [14C]ciprofloxacin from Escherichia coli gyrase; assay type: protein-complex assay
Escherichia coli [26] = test: Inhibition of Escherichia coli DNA synthesis; assay type: functional, organism-based

| SMILES | MIC (Staphylococcus aureus [1]) | MIC (Staphylococcus aureus [2]) | MIC (Streptococcus pneumoniae [3]) | MIC (Escherichia coli [4]) | MIC (Providencia rettgeri) | MIC (Staphylococcus aureus [5]) | MIC (Enterococcus faecalis [6]) | MIC (Moraxella catarrhalis) | MIC (Staphylococcus aureus [11]) | MIC (Streptococcus pneumoniae [12]) | MIC (Haemophilus influenzae) | MIC (Klebsiella pneumoniae [14]) | MIC (Streptococcus pyogenes [15]) | MIC (Staphylococcus aureus [18]) | MIC (Enterococcus faecalis [19]) | MIC (Enterococcus faecium) | MIC (Staphylococcus aureus [20]) | MIC (Klebsiella pneumoniae [21]) | MIC (Staphylococcus aureus [22]) | MIC (Pseudomonas aeruginosa) | further results |
| --- | --- | --- | --- | --- | --- | --- | --- | --- | --- | --- | --- | --- | --- | --- | --- | --- | --- | --- | --- | --- | --- |
| COc1c(N2CC[C@@H]([C@H](C)N)C2)c(F)cc2c(=O)n(N)c(=O)n(C3CC3)c12 | 0.25 µg/mL (≈ 0.662 µM) | 0.13 µg/mL (≈ 0.344 µM) | 0.06 µg/mL (≈ 0.159 µM) | 0.13 µg/mL (≈ 0.344 µM) | 4 µg/mL (≈ 10.6 µM) | 0.5 µg/mL (≈ 1.32 µM) | 0.13 µg/mL (≈ 0.344 µM) | 1 µg/mL (≈ 2.65 µM) | 0.5 µg/mL (≈ 1.32 µM) | 0.03 µg/mL (≈ 0.0795 µM) | 0.25 µg/mL (≈ 0.662 µM) | 8 µg/mL (≈ 21.2 µM) | 0.03 µg/mL (≈ 0.0795 µM) | 0.5 µg/mL (≈ 1.32 µM) | 0.25 µg/mL (≈ 0.662 µM) | 1 µg/mL (≈ 2.65 µM) | 0.25 µg/mL (≈ 0.662 µM) | 8 µg/mL (≈ 21.2 µM) | 1 µg/mL (≈ 2.65 µM) | 8 µg/mL (≈ 21.2 µM) | IC50 (DNA gyrase): 600 nM; MIC (Escherichia coli [7]): 4 µg/mL (≈ 10.6 µM); MIC (Enterococcus faecalis [8]): 0.25 µg/mL (≈ 0.662 µM); MIC (Streptococcus pyogenes [9]): 0.03 µg/mL (≈ 0.0795 µM); ED50 (Enterococcus faecalis [10]): 11 mg/kg; ED50 (Streptococcus pyogenes [13]): 3.1 mg/kg; ED50 (Streptococcus pyogenes [16]): 1.2 mg/kg; MIC (Escherichia coli [17]): 2 µg/mL (≈ 5.3 µM); ED50 (Enterococcus faecalis [23]): 38 mg/kg |
| Cc1c(N2CC[C@@H]([C@H](C)N)C2)c(F)cc2c(=O)n(N)c(=O)n(C3CC3)c12 | 0.13 µg/mL (≈ 0.36 µM) | 0.06 µg/mL (≈ 0.166 µM) | 0.06 µg/mL (≈ 0.166 µM) | 0.03 µg/mL (≈ 0.083 µM) | 2 µg/mL (≈ 5.53 µM) | 0.25 µg/mL (≈ 0.692 µM) | 0.125 µg/mL (≈ 0.346 µM) | 0.25 µg/mL (≈ 0.692 µM) | 0.125 µg/mL (≈ 0.346 µM) | 0.015 µg/mL (≈ 0.0415 µM) | 0.125 µg/mL (≈ 0.346 µM) | 2 µg/mL (≈ 5.53 µM) | 0.015 µg/mL (≈ 0.0415 µM) | 0.25 µg/mL (≈ 0.692 µM) | 0.25 µg/mL (≈ 0.692 µM) | 1 µg/mL (≈ 2.77 µM) | 0.125 µg/mL (≈ 0.346 µM) | 1 µg/mL (≈ 2.77 µM) | 0.5 µg/mL (≈ 1.38 µM) | 4 µg/mL (≈ 11.1 µM) | IC50 (DNA gyrase): 200 nM; Activity [24]: Active; MIC (Escherichia coli [7]): 1 µg/mL (≈ 2.77 µM); MIC (Enterococcus faecalis [8]): 0.06 µg/mL (≈ 0.166 µM); Activity [25]: Active; MIC (Streptococcus pyogenes [9]): 0.015 µg/mL (≈ 0.0415 µM); ED50 (Enterococcus faecalis [10]): 4.2 mg/kg; ED50 (Streptococcus pyogenes [13]): 1.4 mg/kg; ED50 (Streptococcus pyogenes [16]): 0.27 mg/kg; Activity (Escherichia coli [26]): Active; MIC (Escherichia coli [17]): 1 µg/mL (≈ 2.77 µM); ED50 (Enterococcus faecalis [23]): 19 mg/kg |
| O=C(O)c1cn(C2CC2)c2cc(N3CCNCC3)c(F)cc2c1=O [CIPROFLOXACIN] | 2 µg/mL (≈ 6.04 µM) | 0.13 µg/mL (≈ 0.392 µM) | 64 µg/mL (≈ 193 µM) | – | 0.06 µg/mL (≈ 0.181 µM) | 64 µg/mL (≈ 193 µM) | 0.5 µg/mL (≈ 1.51 µM) | 0.03 µg/mL (≈ 0.0905 µM) | 0.5 µg/mL (≈ 1.51 µM) | 1 µg/mL (≈ 3.02 µM) | 0.008 µg/mL (≈ 0.0241 µM) | – | 0.5 µg/mL (≈ 1.51 µM) | – | 32 µg/mL (≈ 96.6 µM) | > 64 µg/mL | 0.5 µg/mL (≈ 1.51 µM) | – | > 64 µg/mL | 0.06 µg/mL (≈ 0.181 µM) | – |
| C[C@H]1NCc2cc(-c3ccc4c(=O)c(C(=O)O)cn(C5CC5)c4c3OC(F)F)ccc21 [GARENOXACIN] | 0.03 µg/mL (≈ 0.0704 µM) | 0.015 µg/mL (≈ 0.0352 µM) | 1 µg/mL (≈ 2.35 µM) | 0.008 µg/mL (≈ 0.0188 µM) | 0.06 µg/mL (≈ 0.141 µM) | 2 µg/mL (≈ 4.69 µM) | 0.125 µg/mL (≈ 0.293 µM) | 0.03 µg/mL (≈ 0.0704 µM) | 0.06 µg/mL (≈ 0.141 µM) | 0.03 µg/mL (≈ 0.0704 µM) | 0.015 µg/mL (≈ 0.0352 µM) | 32 µg/mL (≈ 75 µM) | 0.06 µg/mL (≈ 0.141 µM) | 0.03 µg/mL (≈ 0.0704 µM) | 4 µg/mL (≈ 9.38 µM) | 8 µg/mL (≈ 18.8 µM) | 0.03 µg/mL (≈ 0.0704 µM) | 0.06 µg/mL (≈ 0.141 µM) | 2 µg/mL (≈ 4.69 µM) | 1 µg/mL (≈ 2.35 µM) | MIC (Escherichia coli [7]): 0.03 µg/mL (≈ 0.0704 µM); MIC (Escherichia coli [17]): 0.25 µg/mL (≈ 0.586 µM) |
| COc1c(N2CCNC(C)C2)c(F)cc2c(=O)c(C(=O)O)cn(C3CC3)c12 (stereo not drawn) [GATIFLOXACIN] | 0.125 µg/mL (≈ 0.333 µM) | 0.03 µg/mL (≈ 0.0799 µM) | 4 µg/mL (≈ 10.7 µM) | < 0.06 µg/mL | 0.5 µg/mL (≈ 1.33 µM) | 4 µg/mL (≈ 10.7 µM) | 0.5 µg/mL (≈ 1.33 µM) | 0.03 µg/mL (≈ 0.0799 µM) | 0.125 µg/mL (≈ 0.333 µM) | 0.125 µg/mL (≈ 0.333 µM) | 0.015 µg/mL (≈ 0.04 µM) | 8 µg/mL (≈ 21.3 µM) | 0.5 µg/mL (≈ 1.33 µM) | 0.125 µg/mL (≈ 0.333 µM) | 16 µg/mL (≈ 42.6 µM) | 32 µg/mL (≈ 85.2 µM) | 0.125 µg/mL (≈ 0.333 µM) | 0.06 µg/mL (≈ 0.16 µM) | 8 µg/mL (≈ 21.3 µM) | 0.5 µg/mL (≈ 1.33 µM) | MIC (Escherichia coli [7]): < 0.06 µg/mL; MIC (Escherichia coli [17]): 0.06 µg/mL (≈ 0.16 µM) |
| C[C@H]1COc2c(N3CCN(C)CC3)c(F)cc3c(=O)c(C(=O)O)cn1c23.C[C@H]1COc2c(N3CCN(C)CC3)c(F)cc3c(=O)c(C(=O)O)cn1c23.O [LEVOFLOXACIN] | 0.5 µg/mL | 0.125 µg/mL | – | – | 0.5 µg/mL | 8 µg/mL | 1 µg/mL | 0.03 µg/mL | 0.25 µg/mL | – | 0.008 µg/mL | 8 µg/mL | 0.5 µg/mL | 0.25 µg/mL | 32 µg/mL | 64 µg/mL | 0.25 µg/mL | 0.03 µg/mL | 8 µg/mL | 0.5 µg/mL | – |
